Measured values: patent US12187709B2 (Genentech, Inc., priority 2021, dated 2025)

Assays:
[1] = molecular target: Human Cbl-b (residues 40-426) (Homo sapiens (Human), UniProt Q13191); assay: Cbl-b SPR assay; format: binding; conditions: for Fold of selectivity: C-cbl SPR Kd vs Cbl-b SPR Kd; for Kd: SPR, 20° C.
In short: (§1)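 Binding is measured by surface plasmon resonance against both isoforms, with double referencing and 1:1 kinetic fitting. Dissociation time is tuned to 4-5 half-lives.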

[2] = molecular target: c-Cbl (residues 47-435) (Homo sapiens (Human), UniProt P22681); assay: c-Cbl SPR assay; format: binding; conditions: 20° C.
c-Cbl (residues 47-435), sequence (P22681 47-435): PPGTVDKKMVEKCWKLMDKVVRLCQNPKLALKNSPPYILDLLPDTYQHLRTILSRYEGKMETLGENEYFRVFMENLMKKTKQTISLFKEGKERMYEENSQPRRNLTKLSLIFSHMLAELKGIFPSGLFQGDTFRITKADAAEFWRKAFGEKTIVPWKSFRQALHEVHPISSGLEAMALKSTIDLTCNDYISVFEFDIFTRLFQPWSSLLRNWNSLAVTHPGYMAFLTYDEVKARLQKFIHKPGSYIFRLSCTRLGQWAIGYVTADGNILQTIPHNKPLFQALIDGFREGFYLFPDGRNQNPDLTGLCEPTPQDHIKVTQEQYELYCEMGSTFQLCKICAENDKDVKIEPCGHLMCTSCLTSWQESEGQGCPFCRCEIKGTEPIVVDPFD
In short: as §1

[3] = molecular target: Cbl-b (Homo sapiens (Human), UniProt Q13191); assay: Cbl-b LCK Ub TR-FRET assay (Cbl-b Lck HTRF); format: biochemical; conditions: for IC50: Cbl-b LCK Ub TR-FRET; for fold-selectivity (Cbl-b over C-cbl): ratio C-cbl Lck HTRF IC50 / Cbl-b Lck HTRF IC50
Cbl-b, sequence (Q13191 40-426): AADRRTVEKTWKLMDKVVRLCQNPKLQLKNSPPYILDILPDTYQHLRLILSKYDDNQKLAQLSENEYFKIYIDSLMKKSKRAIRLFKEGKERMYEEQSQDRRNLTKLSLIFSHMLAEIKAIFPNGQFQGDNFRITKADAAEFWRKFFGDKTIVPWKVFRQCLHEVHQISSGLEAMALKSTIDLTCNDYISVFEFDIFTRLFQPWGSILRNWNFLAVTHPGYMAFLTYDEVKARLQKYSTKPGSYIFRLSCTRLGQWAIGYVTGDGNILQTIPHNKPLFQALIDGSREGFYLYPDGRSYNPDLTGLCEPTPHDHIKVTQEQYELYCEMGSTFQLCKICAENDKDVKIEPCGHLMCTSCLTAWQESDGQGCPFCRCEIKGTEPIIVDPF
In short: (§2)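 After the ubiquitination reaction, detection mixture was added and plates incubated 20 min at room temperature before reading. IC50 values were calculated with wells lacking LCK as the low control and DMSO as the high control.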

[4] = molecular target: c-Cbl (Homo sapiens (Human), UniProt P22681); assay: C-Cbl LCK Ub TR-FRET assay (C-cbl Lck HTRF); format: biochemical
c-Cbl, sequence (P22681 47-435): as the sequence (P22681 47-435) above
In short: as §2

Human Cbl-b (residues 40-426), sequence (Q13191 40-426): as the sequence (Q13191 40-426) above

| Compound | Fold of selectivity [1] [×] | Kd [1] [nM] | Kd [2] [nM] | IC50 [3] [nM] | fold-selectivity (Cbl-b over C-cbl) [3] | IC50 [4] [nM] |
| --- | --- | --- | --- | --- | --- | --- |
| Cn1cnnc1C1(c2cccc(N3Cc4c(cc(CNC5(C)CCC5)cc4C(F)(F)F)C3=O)c2)COC1 [Compound 58, 2-(3-(3-(4-methyl-4H-1,2,4-triazol-3-yl)oxetan-3-yl)phenyl)-6-(((1-methylcyclobutyl)amino)methyl)-4-(trifluoromethyl)isoindolin-1-one] | 3.1 | 140 | 440 | 280 | (2.0x) | 560 |
| Cn1cnnc1C1(c2cccc(N3Cc4c(cc(CNC5(C)CCC5)cc4C(F)(F)F)C3=O)c2)CC2(COC2)C1 [Compound 65, 2-(3-(6-(4-methyl-4H-1,2,4-triazol-3-yl)-2-oxaspiro[3.3]heptan-6-yl)phenyl)-6-(((1-methylcyclobutyl)amino)methyl)-4-(trifluoromethyl)isoindolin-1-one] | 19 | 3.7 | 68 | 20 | (3.1x) | 62 |
| CC(C)[C@H]1CN(C)CCN1Cc1cc2c(c(C(F)(F)F)c1)CN(c1cc([C@]3(c4nncn4C)C[C@@H](C)C3)cc(OC3CCCC3)n1)C2=O [Compound 72, 2-(6-(cyclopentyloxy)-4-((1S,3R)-3-methyl-1-(4-methyl-4H-1,2,4-triazol-3-y)cyclobutyl)pyridin-2-yl)-6-(((S)-2-isopropyl-4-methylpiperazin-1-yl)methyl)-4-(trifluoromethyl)isoindolin-1-one] | 4.5 | 0.4 | 1.8 | 2400 | (2.4x) | 5300 |
| CC(C)[C@H]1CN(C)CCN1Cc1cc2c(c(C(F)(F)F)c1)CN(c1cc([C@]3(c4nncn4C)C[C@@H](C)C3)cc(NC3CCCC3)n1)C2=O [Compound 74, 2-(6-(cyclopentylamino)-4-((1S,3R)-3-methyl-1-(4-methyl-4H-1,2,4-triazol-3-yl)cyclobutyl)pyridin-2-yl)-6-(((S)-2-isopropyl-4-methylpiperazin-1-yl)methyl)-4-(trifluoromethyl)isoindolin-1-one] | 8.7 | 8.3 | 72 | 15 | (1.5x) | 23 |
| Cn1cnnc1[C@]1(c2cccc(N3Cc4c(cc(CNC5(C)CCC5)cc4C(F)(F)F)C3=O)c2)C[C@H](CC#N)C1 [Compound 88, 2-((1s,3s)-3-(4-methyl-4H-1,2,4-triazol-3-yl)-3-(3-(6-(((1-methylcyclobutyl)amino)methyl)-1-oxo-4-(trifluoromethyl)isoindolin-2-yl)phenyl)-cyclobutyl)acetonitrile] | 4.1 | 21 | 87 | 12 | 1.0x | 12 |
| Cn1cnnc1[C@]1(c2cccc(N3Cc4c(cc(CNC5(C)CCC5)cc4C(F)(F)F)C3=O)c2)C[C@@H](CC#N)C1 [Compound 89, 2-((1r,3r)-3-(4-methyl-4H-1,2,4-triazol-3-yl)-3-(3-(6-(((1-methylcyclobutyl)amino)methyl)-1-oxo-4-(trifluoromethyl)isoindolin-2-yl)phenyl)-cyclobutyl)acetonitrile] | 6.6 | 0.6 | 4 | 41 | 2.4x | 98 |
| Cn1cnnc1[C@]1(c2cccc(N3Cc4c(cc(CNC5(C)CCC5)cc4C(F)(F)F)C3=O)c2)C[C@H](F)C1 [Compound 95, 2-(3-((1s,3s)-3-fluoro-1-(4-methyl-4H-1,2,4-triazol-3-yl)cyclobutyl)-phenyl)-6-(((1-methylcyclobutyl)amino)methyl)-4-(trifluoromethyl)isoindolin-1-one] | 7.5 | 2 | 15 | 12 | 1.7x | 21 |

Other lines, results leading:

| Fold of selectivity [1] [×] | Kd [1] [nM] | Kd [2] [nM] | IC50 [3] [nM] | fold-selectivity (Cbl-b over C-cbl) [3] | IC50 [4] [nM] | Compound |
| --- | --- | --- | --- | --- | --- | --- |
| 7.0 | 2.2 | 16 | 14 | (1.4x) | 19.6 | Cn1cnnc1[C@]1(c2cc(NC3CC(F)(F)C3)nc(N3Cc4c(cc(CNC5(C)CCC5)cc4C(F)(F)F)C3=O)c2)C[C@H](C)C1 [Compound 49, 2-(6-((3,3-difluorocyclobutyl)amino)-4-((1s,3s)-3-methyl-1-(4-methyl-4H-1,2,4-triazol-3-yl)cyclobutyl)pyridin-2-yl)-6-(((1-methylcyclobutyl)amino)methyl)-4-(trifluoromethyl)isoindolin-1-one] |
| 5.2 | 3.7 | 20 | 15 | (1.7x) | 25.5 | Cn1cnnc1C1(c2cccc(N3Cc4c(cc(CNC5(C)CCC5)cc4C(F)(F)F)C3=O)c2)CC(F)(F)C1 [Compound 61, 2-(3-(3,3-difluoro-1-(4-methyl-4H-1,2,4-triazol-3-yl)cyclobutyl)phenyl)-6-(((1-methylcyclobutyl)amino)methyl)-4-(trifluoromethyl)isoindolin-1-one] |
| 1.5 | 0.36 | 0.53 | 6.5 | (0.9x) | 5.9 | Cn1cnnc1[C@]1(c2cc(NC3CCC3)nc(N3Cc4c(cc(CNC5(C)CCC5)cc4C(F)(F)F)C3=O)c2)C[C@H](C)C1 [Compound 67, 2-(6-(cyclobutylamino)-4-((1S,3S)-3-methyl-1-(4-methyl-4H-1,2,4-triazol-3-yl)cyclobutyl)pyridin-2-yl)-6-(((1-methylcyclobutyl)amino)methyl)-4-(trifluoromethyl)isoindolin-1-one] |
| 4.3 | 0.24 | 1 | 8.5 | (0.8x) | 7.1 | Cn1cnnc1[C@]1(c2cc(NC3CCC3)nc(N3Cc4c(cc(CNC5(C)CCC5)cc4C(F)(F)F)C3=O)c2)C[C@@H](C)C1 [Compound 68, 2-(6-(cyclobutylamino)-4-((1R,3R)-3-methyl-1-(4-methyl-4H-1,2,4-triazol-3-yl)cyclobutyl)pyridin-2-yl)-6-(((1-methylcyclobutyl)amino)methyl)-4-(trifluoromethyl)isoindolin-1-one] |
| 6.9 | 3.3 | 23 | 11 | (4.9x) | 54 | CO[C@H]1C[C@@](c2cc(NC3CCCC3)nc(N3Cc4c(cc(CNC5(C)CCC5)cc4C(F)(F)F)C3=O)c2)(c2nncn2C)C1 [Compound 69, 2-(6-(cyclopentylamino)-4-((1S,3S)-3-methoxy-1-(4-methyl-4H-1,2,4-triazol-3-yl)cyclobutyl)pyridin-2-yl)-6-(((1-methylcyclobutyl)amino)methyl)-4-(trifluoromethyl)isoindolin-1-one] |
| 20 | 11 | 220 | 17 | (9.3x) | 158 | CO[C@H]1C[C@](c2cc(NC3CCCC3)nc(N3Cc4c(cc(CNC5(C)CCC5)cc4C(F)(F)F)C3=O)c2)(c2nncn2C)C1 [Compound 70, 2-(6-(cyclopentylamino)-4-((1R,3R)-3-methoxy-1-(4-methyl-4H-1,2,4-triazol-3-yl)cyclobutyl)pyridin-2-yl)-6-(((1-methylcyclobutyl)amino)methyl)-4-(trifluoromethyl)isoindolin-1-one] |
| 2.0 | 0.2 | 0.4 | 7.8 | 0.83x | 6.6 | CCNc1cc(N2Cc3c(cc(CNC4(C)CCC4)cc3C(F)(F)F)C2=O)cc([C@]2(c3nncn3C)C[C@H](C)C2)c1 [Compound 90, 2-(3-(ethylamino)-5-((1r,3r)-3-methyl-1-(4-methyl-4H-1,2,4-triazol-3-yl)cyclobutyl)phenyl)-6-(((1-methylcyclobutyl)amino)methyl)-4-(trifluoromethyl)isoindolin-1-one] |
| 3.0 | 0.3 | 0.9 | 10 | 0.8x | 8 | CCNc1cc(N2Cc3c(cc(CNC4(C)CCC4)cc3C(F)(F)F)C2=O)cc([C@]2(c3nncn3C)C[C@@H](C)C2)c1 [Compound 91, 2-(3-(ethylamino)-5-((1s,3s)-3-methyl-1-(4-methyl-4H-1,2,4-triazol-3-yl)cyclobutyl)phenyl)-6-(((1-methylcyclobutyl)amino)methyl)-4-(trifluoromethyl)-isoindolin-1-one] |
| 19 | 7.4 | 140 | 21 | 6.0x | 120 | Cn1cnnc1C1(c2cccc(N3Cc4c(cc(CNC5(C)CCC5)cc4C(F)(F)F)C3=O)c2)CC2(CC(F)(F)C2)C1 [Compound 94, 2-(3-(6,6-difluoro-2-(4-methyl-4H-1,2,4-triazol-3-yl)spiro[3.3]heptan-2-yl)phenyl)-6-(((1-methylcyclobutyl)amino)methyl)-4-(trifluoromethyl)isoindolin-1-one] |
